Laboratory results reported in the NIST ThermoML archive (doi:10.1016/j.fluid.2015.04.017).

Key:
[1] = 298.15 K, 101.33 kPa, Liquid; for viscosity: Concentric cylinders viscometry; for mass density: Vibrating tube method
[2] = refractive index (Na D-line) (dimensionless); details: 298.15 K; 101.33 kPa; Liquid; Standard Abbe refractometry
[3] = xn = mol fraction of the nth substance listed; details: 101 kPa, Liquid, x2 = 0; for viscosity: Concentric cylinders viscometry; for mass density: Vibrating tube method
[4] = refractive index (Na D-line) (dimensionless); xn = mol fraction of the nth substance listed; details: 101 kPa, Liquid, Standard Abbe refractometry, x2 = 0

CCOC(=O)C(C)O (racemic) [DL-ethyl lactate]
Details	mass density [kg/m3]	refractive index	viscosity [mPa·s]
[1]	1028.39	–	2.39
[2]	–	1.41076	–

CN1CCCC1=O [N-methylpyrrolidone]
Details	mass density [kg/m3]	refractive index	viscosity [mPa·s]
[1]	1030.45	–	1.757
[2]	–	1.4687	–

CN1CCCC1=O [N-methylpyrrolidone] + CCOC(=O)C(C)O
Details	mass density, [3] [kg/m3]	refractive index, [4]	viscosity, [3] [mPa·s]
288.15 K	1039.4	1.47305	2.088
293.15 K	1034.92	1.47088	1.91
298.15 K	1030.45	1.4687	1.757
303.15 K	1025.99	1.46651	1.623
308.15 K	1021.52	1.46434	1.505
313.15 K	1017.07	1.46211	1.401
318.15 K	1012.61	1.45998	1.307
323.15 K	1008.16	1.45783	1.231

CCC(C)=O [butanone]
Details	mass density [kg/m3]	refractive index	viscosity [mPa·s]
[1]	800.872	–	0.3888
[2]	–	1.37662	–

CCC(C)=O [butanone] + CCOC(=O)C(C)O
Details	mass density, [3] [kg/m3]	refractive index, [4]	viscosity, [3] [mPa·s]
288.15 K	811.324	1.3817	0.4217
293.15 K	806.111	1.37918	0.4054
298.15 K	800.872	1.37662	0.3888
303.15 K	795.603	1.37402	0.3712
308.15 K	790.3	1.37138	0.3542
313.15 K	784.965	1.36871	0.3368
318.15 K	779.589	1.36615	0.3194
323.15 K	774.175	1.36338	0.3036

Cc1ccccc1 [toluene]
Details	mass density [kg/m3]	refractive index	viscosity [mPa·s]
[1]	862.206	–	0.567
[2]	–	1.49299	–

Cc1ccccc1 [toluene] + CCOC(=O)C(C)O
Details	mass density, [3] [kg/m3]	refractive index, [4]	viscosity, [3] [mPa·s]
288.15 K	871.501	1.49883	0.6251
293.15 K	866.859	1.49592	0.5961
298.15 K	862.206	1.49299	0.567
303.15 K	857.541	1.49012	0.54
308.15 K	852.861	1.48731	0.5128
313.15 K	848.164	1.48454	0.4866
318.15 K	843.444	1.48195	0.462
323.15 K	838.707	1.47928	0.4435
